Measured values published in patent US20190150437A1, “USE OF SESQUITERPENES AND THEIR ANALOGS AS GREEN INSECTICIDES FOR CONTROLLING DISEASE VECTORS AND PLANT PESTS” (Ohio State Innovation Foundation, priority 2016, published 2019).
Entries after “also recorded” stand apart in the source; their conditions may differ. Marks after values point to notes of the source that are not given here. Each block holds one molecule with its values, some of them ahead of it.

Legend:
[1] = test system: Alpha-glucosidase (EC 3.2.1.20); assay: Alpha-Glucosidase Inhibition Assay; assay type: biochemical; details: for Alpha-glucosidase inhibitory activity, in words / alpha-Glucosidase inhibition (%): 0.1 mg/mL final concentration
Method: Alpha-Glucosidase Inhibition Assay.
The assay was performed according to the 126 Journal of Natural Products, 2008. Vol. 71. No. 1 Notes
method described by Oki and co-workers, with slight modifications.^13 alpha-Glucosidase was purchased from Toyobo Co., Ltd. (Osaka. Japan). The enzyme solution was prepared by dissolving 0.6 U/mL of Alpha-glucosidase in 100 mM phosphate buffer (pH 7) containing 2 g/L bovine serum albumin and 0.2 g/L NaN3. p-Nitrophenyl-R-D-glucopyranoside (5 mM) in the same buffer solution (pH 7) was used as a substrate solution. The enzyme solution (50 μL) and the test compounds (10 μL), dissolved in DMSO to a final concentration of 0.1 mg/mL, were mixed in each well of the microliter 96-well culture plates and measured spectrophotometrically (absorbance 405 nm) at zero time, using a microplate reader (Bio-Rad model 550 microplate reader). The mixture was preincubated for 5 min at room temperature before the addition of substrate solution ([…]) and followed by a 5 min incubation at room temperature. The increase in absorbance from zero time was measured. The inhibitory activity was expressed as […] minus the relative absorbance difference (%) of test compounds to absorbance change of the control where the test solution was replaced by DMSO. 1-Deoxynojirimycin (Wako Pure Chemical Industries, Ltd.) 0.3 mM in DMSO was used as a positive control.

[2] = test system: soybean aphid Aphis glycines; assay: Soybean aphid toxicity, applied to cuticle of 3rd instar nymphs, 24 h; assay type: in vivo; details: for ED50 in aphids: 3rd instar nymphs, 24 h after application to cuticle
Method: Dose-toxicity relationships in 3rd instar nymphs 24 h after adding CINEX or indicated compound to the thoracic cuticle. CDIAL=OSU-1.
(§1) Each compound of cinnamodial (CDIAL), cinnafragrin A (CM18) and cinnamosmolide (CMOS) were isolated form the barks of the Madagascan plants Cinnamosma fragrans, Cinnamosma macrocarpa and Cinnamosma madagascariensis. Each was dissolved in 100% acetone and applied directly to the cuticle of adult female mosquitoes (Aedes aegypti, Anopheles gambiae, and Culex pipiens) or 3rd instar nymph soybean aphids (Aphis glycines). The bark extract and the isolated compounds was toxic to larval and adult female mosquitoes within 24 hr in a concentration/dose dependent manner (FIGS. 4 and 5). Among the isolated compounds.

[3] = test system: C. pipiens larvae; assay: Larval mosquito toxicity, compound added to rearing water, 24 h; assay type: in vivo, Culex pipiens; details: 24 h after adding to rearing water
Method: (§2) The concentration/dose-toxicity relationships for Ae. aegypti from FIG. 4 are superimposed to facilitate comparisons.
as §1

[4] = test system: A. aegypti adult females; assay: Adult female mosquito toxicity, applied to thoracic cuticle, 24 h; assay type: in vivo, Aedes aegypti; details: for Adult female mosquitoes ED50 in μg/mg mosquito (95% CI), A. aegypti: adult females, 24 h after applying to thoracic cuticle, in acetone
Method: (§3) A,C) Concentration-toxicity relationships in 1st instar larvae 24 h after adding CINEX or indicated compound to the rearing water. B,D) Dose-toxicity relationships in adult females 24 h after applying CINEX or indicated compound to the thoracic cuticle. CDIAL=OSU-1.
as §1

[5] = test system: adult female Aedes aegpti; assay: Blood-feeding bioassay (mosquito repellency, membrane feeder); assay type: in vivo, Aedes aegypti; details: 20.8 μg/cm^2 on nylon fabric covering the blood source, 1 h
Source text: FIG. 8 is a graph showing repellent efficacy of CINEX and CDIAL (OSU-1) compared to DEET, an industry standard. Values are means±SEM; N=31, 9, 5, and 15 respectively for Control, DEET, CINEX, and CDIAL. Lower-case letters indicate statistical categorization of the means as determined by a one-way ANOVA with a Newman-Keuls posttest (P<0.05).
We used a blood-feeding bioassay to test the efficacy of OSU-1 (CDIAL) and the C. fragrans bark extract (CINEX) to repel mosquitoes from feeding on a blood source. In brief, cages of 20 mosquitoes (adult female Aedes aegpti) were starved for 24 h before being allowed to feed on a membrane feeder (Hemotek) containing defibrinated rabbit blood. After 1 h, the mosquitoes were immobilized on ice and the number of individuals with blood in their abdomen was counted. The membrane feeder maintains the blood at a constant temperature of 37° C. (human body temperature) and is covered with a collagen membrane that mimics human skin. Mosquitoes pierce through the collagen membrane with their proboscis to obtain the blood. […] Lower-case letters indicate statistical categorization of the means as determined by a one-way ANOVA with a Newman-Keuls posttest (P<0.05).

[6] = test system: Alpha-glucosidase (EC 3.2.1.20); details: reported in references 2 and 3; cited from earlier work
[7] = test system: C. pipiens adult females; assay: Adult female mosquito toxicity, applied to thoracic cuticle, 24 h; assay type: in vivo, Culex pipiens; details: 24 h after applying to thoracic cuticle, in acetone
Method: as §2, §1

[8] = test system: A. gambiae adult females; assay: as above; assay type: in vivo, Anopheles gambiae; details: 24 h after applying to thoracic cuticle, in acetone
Method: as §2, §1

[9] = test system: A. aegypti 1st instar larvae; assay: Larval mosquito toxicity, compound added to rearing water, 24 h; assay type: in vivo, Aedes aegypti; details: for Larval mosquitoes EC50 in ppm (95% CI), A. aegypti: larvae, 24 h after adding to rearing water
Method: as §3, §1

[10] = test system: A. gambiae larvae; assay: as above; assay type: in vivo, Anopheles gambiae; details: 24 h after adding to rearing water
Method: as §2, §1

Molecule: OC[C@H]1NC[C@H](O)[C@@H](O)[C@@H]1O [1-deoxynojirimycin, reference compound]
- alpha-Glucosidase inhibition (%), positive control ([1]; 0.3 mM in DMSO, positive control): 100%

Molecule: CC(=O)O[C@@H]1C=C(C=O)[C@@](O)(C=O)[C@@]2(C)CCCC(C)(C)C12 (stereo partly shown) [CDIAL, cinnamodial]
- ED50 in aphids [2]: 0.38 μg/aphid
- Toxicity to aphids, in words ([2]; within 24 h of application): most potent
- Alpha-glucosidase inhibitory activity, in words [1]: most potent activity
- alpha-Glucosidase inhibition (%) [1]: 83.7%
- Larval mosquitoes EC50 in ppm (95% CI), C. pipiens [3]: 13.3† ppm
- Adult female mosquitoes ED50 in μg/mg mosquito (95% CI), A. aegypti [4]: 0.09 μg/mg mosquito
- Toxicity to adult female mosquitoes, in words ([4]; within 24 hr, dose dependent): most potent and efficacious
- Percentage of mosquitoes feeding on a blood source, in words [5]: significantly reduced
- Alpha-glucosidase inhibition, in words, from earlier papers [6]: strong inhibition
- Adult female mosquitoes ED50 in μg/mg mosquito (95% CI), C. pipiens [7]: 0.17† μg/mg mosquito
- Adult female mosquitoes ED50 in μg/mg mosquito (95% CI), A. gambiae [8]: 0.05† μg/mg mosquito
- Larval mosquitoes EC50 in ppm (95% CI), A. aegypti [9]: 21.6 ppm
- Toxicity to larval mosquitoes, in words ([9]; within 24 hr, concentration dependent): most potent and efficacious
- Larval mosquitoes EC50 in ppm (95% CI), A. gambiae [10]: 29.8 ppm

Molecule: CC(=O)O[C@@H]1C=C(C2OC3OC(O)C4=C[C@@H](OC(C)=O)C5C(C)(C)CCC[C@]5(C)[C@]43O2)[C@@](O)(C=O)[C@@]2(C)CCCC(C)(C)C12 (stereo partly shown) [CM18, cinnafragrin A]
- ED50 in aphids [2]: 1.7 μg/aphid
- Adult female mosquitoes ED50 in μg/mg mosquito (95% CI), A. aegypti [4]: 2.03* μg/mg mosquito
- Larval mosquitoes EC50 in ppm (95% CI), A. aegypti [9]: 22.6 ppm

Molecule: CC(=O)O[C@@H]1C=C2C(=O)OCC2(O)[C@@]2(C)CCCC(C)(C)C12 (stereo partly shown) [CMOS, cinnamosmolide]
- ED50 in aphids [2]: 2.5 μg/aphid
- alpha-Glucosidase inhibition (%) [1]: 20.0%
- Adult female mosquitoes ED50 in μg/mg mosquito (95% CI), A. aegypti [4]: 3.94* μg/mg mosquito
- Larval mosquitoes EC50 in ppm (95% CI), A. aegypti [9]: 134.4* ppm

Molecule: CC1(C)CCC[C@]2(C)[C@H](C=O)C(C=O)=CC[C@@H]12 [isopolygodial, reference compound]
- Alpha-glucosidase inhibition, in words, from earlier papers [6]: did not show any activity

More lines, main results first:

- alpha-Glucosidase inhibition (%) [1]: not active
Molecule: COC1OC(OC)C2(O)C1=CC(OC(C)=O)C1C(C)(C)CCCC12C (stereo not shown) [Compound 2, cinnamodial 11R,12-dimethyl acetal]

- alpha-Glucosidase inhibition (%) [1]: 7.2%
Molecule: CC1(C)CCC[C@@]2(C)[C@H]1[C@H](O)C=C1C(=O)OC[C@]12O [Compound 3, pereniporin B]

- alpha-Glucosidase inhibition (%) [1]: 46.2%
Molecule: CC(=O)O[C@@H]1[C@@H](O)C2=C(C(=O)OC2)[C@@]2(C)CCCC(C)(C)[C@H]12 [Compound 4, ugandensolide]
- Alpha-glucosidase inhibitory activity, in words [1]: moderate effects; also recorded: moderate activity

- alpha-Glucosidase inhibition (%) [1]: 2.1%
Molecule: CC1(C)CCC[C@]2(C)[C@@H](C=O)C(C=O)=CC[C@@H]12 [Compound 5, polygodial]
- Alpha-glucosidase inhibitory activity, in words [1]: only slight activity; also recorded: did not show any activity

- Alpha-glucosidase inhibitory activity, in words [1]: moderate effects
- alpha-Glucosidase inhibition (%) [1]: 14.9%
Molecule: cinnamadin [Compound 1]
